Data set [1] has as its system lung adenocarcinoma (A549) cells. In words: Sulforhodamine B (SRB) cell growth inhibition assay, A549. In kind it is cell-based. Conditions: for IC50: A549, SRB, 72 h, value (95% confidence interval), read-out: IC50 (maximum 50% inhibitory concentration of cell growth). Here is the method: (§1) The cell lines of lung adenocarcinoma (A549), melanoma (B16-F10) and glioma (C6) were purchased from the Federal University of Rio de Janeiro. Cells were maintained in cell culture flasks in Dulbeccos's Modified Eagle Medium (DMEM) supplemented with 10% Fetal Bovine Serum (FBS) and 1% antibiotic (10,000 U/mL penicillin; […] streptomycin) and incubated at 37 °C in an atmosphere of 5% CO2. After reaching the necessary confluence for carrying out the experiments, the medium was removed, and the cells detached from the bottle using a 0.25% Trypsin–EDTA solution for a period of 1 to 15 min. After this step, the Trypsin–EDTA solution was inactivated with culture medium and the cells were centrifuged, with rotation of 153 G for 10 min at 4 °C. The pellet formed was resuspended in culture medium and the cells were counted in a Neubauer chamber to carry out the experiments.
(§2) For this experiment, A549, B16-F10 and C6 cells were seeded in 96-well plates at a density of 1 × 10^4 cells/well. After an incubation period of 24 h in a humidified incubator at 37 °C with 5% CO2 atmosphere for adhesion, the cells were treated with lawsone and lawsone derivatives (compounds 1, 2 and 3) for 72 h with concentrations from 25 µM to 0.8 µM. Cells were fixed with 100 μL of 30% trichloroacetic acid for 1 h in a refrigerator at 4 °C. Then, the plate was washed 4 times with water and set to dry. After the drying period, 100 μL of 0.057% Sulforhodamine B (SRB) solution (w/v) dissolved in 1% acetic acid was added for 30 min at room temperature. Then the plate was washed 4 times with 1% acetic acid to remove excess dye. After drying, 200 μL of TRIS 10 mM pH 10.5 was added to dilute the SRB for 30 min. The reading was made in a spectrophotometer (Biotek—H1 Synergy) with a wavelength of 510 nm.
(§3) Based on the inhibitory degree of the derivatives, the IC50 of the compounds were calculated. The IC50 is the concentration capable of inhibiting 50% of cell growth. The compound that presented the lowest IC50 was compound 1, being selected for evaluation in the following experiments. For this, IC50 values were used as a basis to define concentrations of half of the IC50, the IC50 value and twice the IC50.

The subject of a further data set is melanoma (B16-F10) cells. In words: Sulforhodamine B (SRB) cell growth inhibition assay, B16-F10. In kind it is cell-based. Particulars: for IC50: B16-F10, SRB, 72 h, value (95% confidence interval), read-out: IC50 (maximum 50% inhibitory concentration of cell growth). As for the experimental part: as §1, §2, §3
The test system of a further data set is glioma (C6) cells. In words: Sulforhodamine B (SRB) cell growth inhibition assay, C6. In kind it is cell-based. Conditions: for IC50: C6, SRB, 72 h, value (95% confidence interval), read-out: IC50 (maximum 50% inhibitory concentration of cell growth). As for the experimental part: as §1, §2, §3
Data set [2] concerns A549 cells. In words: Giemsa staining, morphological changes, A549. In kind it is cell-based. Particulars: A549, 2.2 and 4.4 μM, 24 h. As for the experimental part: (§4) A549, B16-F10 and C6 cells were seeded on coverslips in 24-well plates at a density of 2 × 10^4 cells/well. After 24 h, cells were treated with the compound 1 derivative using 1.1, 2.2 and 4.4 μM for A549 and C6, and 0.75, 1.5 and 3 µM for B16-F10 for 24 h. After treatment, cells were washed twice with phosphate-buffered saline (PBS) and fixed with methyl alcohol for 3 min. Then cells were stained with Giemsa for 1 min. The slides were evaluated under an optical microscope (Olympus) and the images were captured at 400 × magnification.

The next data set concerns B16-F10 cells. In words: Giemsa staining, morphological changes, B16-F10. The class given is cell-based. Particulars: 24 h. As for the experimental part:
as §4

The next data set has as its system C6 cells. The data set can be described thus: Giemsa staining, morphological changes, C6. The class given is cell-based. Particulars: 24 h. As for the experimental part:
as §4

The next data set can be described thus: Hemolytic assay. The class given is cell-based, human. Particulars: human erythrocytes (2% suspension); human erythrocytes, 110 µM, 1 h; read-out: hemolysis percentage. Here is the method:
(§5) The hemolytic activity of the compound 1 was tested using human erythrocytes from healthy volunteers. […] Triton X 100 (0.1%) and Dimethyl sulfoxide (0.1%) were used as positive and negative hemolysis controls, respectively. Erythrocytes were kept under agitation at a temperature of 37 °C for 1 h. After this time, the plate was centrifuged at 405 × g for 5 min and 0.15 mL of the transferred supernatant was read in a spectrophotometer (Biotek—H1 Synergy) with an absorbance of 540 nm.

The next data set concerns human erythrocytes. The data set can be described thus: Hemolytic assay. The class given is cell-based. As for the experimental part: as §5
Data set [3] concerns A549 cells. In words: Clonogenic assay. In kind it is cell-based. Conditions: Homo sapiens, 72 h treatment, read-out: inhibition of colony formation. Here is the method: A549 cells were seeded in a 6-well plate at a density of 150 cells/well and incubated in an incubator with 5% CO2 atmosphere at 37 °C. After 24 h, cells were treated with the compound 1 at concentrations of 1.1, 2.2 and 4.4 µM for 72 h. Dimethyl sulfoxide 0.02% and Doxorubicin 0.2 μM were used as negative control and positive control respectively. The treatment was removed and replaced with a supplemented DMEM medium. The cells were incubated in an atmosphere of 5% CO2 at 37 °C. After 6 days, cells were fixed with methanol + acetic acid (3:1) for 5 min and stained with 0.5% crystal violet in water for 30 min. The plates were photographed, and the images were analyzed using ImageJ 1.46 software.

The subject of data set [4] is A549 cells. In words: Wound-healing assay (cell migration). In kind it is cell-based. Particulars: for wound closure: A549, 4.4 µM. Here is the method: A549 cells were seeded in a 12-well plate at a density of 4 × 10^5 cells/well and incubated in an incubator with 5% CO2 atmosphere at 37 °C for 24 h. After the incubation period, a straight-line wound was made with the aid of a p200 tip, the supernatant was discarded, and the wells were washed twice with 1 × PBS to remove loose cells. Cells were treated with compound 1 at concentrations of 1.1, 2.2 and 4.4 µM. 0.02% Dimethyl sulfoxide and 0.2 μM Doxorubicin were used as a negative control and positive control, respectively. Images of wound closure were acquired at 0, 24 and 48 h of treatment with an Olympus microscope. The images were analyzed using the ImageJ software version 1.46.

The test system of data set [5] is A549 cells. The data set can be described thus: Annexin V-FITC/PI assay (flow cytometry). Particulars: 24 h. In kind it is cell-based. Here is the method:
A549 cells were seeded in 12-well plates in DMEM medium supplemented with FBS and 1% antibiotic (10,000 U/ml penicillin; […] streptomycin) with a density equal to 2 × 10^5 cells/well and incubated for 24 h. Then, the cells were treated with the compound 1 at concentrations of 1.1, 2.2 and 4.4 µM, for 24 h. Dimethyl sulfoxide 0.02% was used as negative control and 0.2 μM Doxorubicin were used as positive control. After treatment, cells were detached with Accutase solution, transferred to tubes, and washed with PBS. After washing the cells were stained with Annexin V-FITC/PI according to the manufacturer. Samples were analyzed by flow cytometry (Attune NxT Acoustic Focusing Cytometer, Thermo Fisher Scientific). Cells without labeling were considered viable, cells positive only for Annexin V/FITC were considered cells in apoptosis, cells with double labeling for Annexin V/FITC and propidium iodide were considered cells in late apoptosis and cells positive only for iodide propidium were considered cells in necrosis.
For orientation: Flow cytometry measures light scatter and fluorescence of single cells or particles in a stream.

SMILES strings stand for the structures. Counter-ions that a name gives are not always drawn. Like-named read-outs stand apart in the source and are kept apart here.

Turning to `O=C1C=C(OCc2cn(-c3ccccc3)nn2)C(=O)c2ccccc21` [Compound 2], the growth inhibition category entry is listed as “low (low when below 50%)” in [1] (A549, 72 h, concentrations 12.5 to 0.8 µM); “low (low when below 50%)” with melanoma (B16-F10) cells (B16-F10, 72 h, concentrations 12.5 to 0.8 µM); “low (low when below 50%)” in the data set on glioma (C6) cells (C6, 72 h, concentrations 12.5 to 0.8 µM). The IC50 in [1] was 14.9 µM; in data set [1] (Homo sapiens, A549, 72 h), over 14 µM; with melanoma (B16-F10) cells, 14.2 µM; with melanoma (B16-F10) cells (Mus musculus, B16-F10, 72 h), over 14 µM; with glioma (C6) cells (listed as compound 2) it was over 14 µM; with glioma (C6) cells it was 43.4 µM. Further, the inhibition (usually how much of the control response was suppressed) at 25 µM in [1] (Homo sapiens, A549, 72 h, 25 µM, read-out: growth inhibition category) is 50 to 75%; in the data set on melanoma (B16-F10) cells (Mus musculus, B16-F10, 72 h, 25 µM, read-out: growth inhibition category), 50 to 75%.

Take `O=C1C=C(O)C(=O)c2ccccc21` [Lawsone, 2-hydroxy-1,4-naphtoquinone]: the IC50 in data set [1] (Homo sapiens, A549, 72 h) was 53 µM; in the data set on glioma (C6) cells (Rattus norvegicus, C6, 72 h) it was 22.6 µM.

As for `C#CCOC1=CC(=O)c2ccccc2C1=O` [Compound 1, O-propargyllawsone], the growth inhibition category entry is listed as “high (high inhibition when above 75%)” in data set [1] (A549, 72 h, concentrations from 25 to 6.3 µM); “high (high inhibition when above 75%)” with melanoma (B16-F10) cells (B16-F10, 72 h, concentrations from 25 to 6.3 µM); “high (high inhibition when above 75%)” in the data set on glioma (C6) cells (C6, 72 h, concentrations from 25 to 6.3 µM). Besides, the IC50 was 2.2 µM in [1]; under 2.5 µM in data set [1] (Homo sapiens, A549, 72 h); 1.5 µM in the data set on melanoma (B16-F10) cells; under 2.2 µM in the data set with melanoma (B16-F10) cells (Mus musculus, B16-F10, 72 h); 2.2 µM with glioma (C6) cells; under 2.2 µM in the data set with glioma (C6) cells (Rattus norvegicus, C6, 72 h). Besides, in data set [1] (compared with lawsone IC50, cell line not specified), the “inhibitory potential relative to lawsone” value is given as “at least 10 times”. The “morphological changes (Giemsa)” value in the data set on A549 cells [2] was “reduction in cytoplasm and apoptotic cells”; in the data set with B16-F10 cells (B16-F10, 0.75 µM), “reduced cytoplasmic volume and the appearance of apoptotic cells”; with B16-F10 cells (B16-F10, 1.5 and 3 µM) it was “reduction in cytoplasm and apoptotic cells”; in the data set on C6 cells (C6, 1.1 µM) it was “reduced cytoplasmic volume and the appearance of apoptotic cells”; in the data set with C6 cells (C6, 2.2 and 4.4 μM) it was “reduction in cytoplasm and apoptotic cells”. Further, the hemolysis at 1 h, 110 µM in “Hemolytic assay” is under 0.5%. For the same compound, in the data set on human erythrocytes (highest concentration tested of 110 µM), the toxicity to erythrocytes entry is given as “not toxic to erythrocytes”. The hemolytic effect result with human erythrocytes (human erythrocytes, 13.75, 27.5 and 55 µM, 1 h) is reported as “no hemolytic effect”. The inhibition at 1.1 µM in the data set with A549 cells [3] (A549, 1.1 µM, compared to the negative control) was 31.1%. The inhibition at 2.2 µM with A549 cells [3] (A549, 2.2 µM, compared to the negative control) is 82.1%. Moreover, the inhibition at 4.4 µM in the data set on A549 cells [3] (A549, 4.4 µM, compared to the negative control) stood at 98.1%. For the same compound, the “effect on cell migration” value with A549 cells [4] (A549, 1.1 µM, 24 or 48 h) was “no significant reduction of migration”. In addition, in the data set on A549 cells [4] (A549, 2.2 µM, 48 h), the “reduction of wound closure” value was 33%. The wound closure is 18% in the data set with A549 cells [4] (24 h) and 56% in the data set on A549 cells [4] (48 h). In the data set with A549 cells [5] (A549, 1.1 µM and 2.2 µM), the “changes in the percentage of living, apoptotic or necrotic cells” value is given as “not able to induce significant changes”. In the data set with A549 cells [5] (A549, 4.4 µM), the cells undergoing apoptosis is recorded as 47.8%. The same compound yielded a cells undergoing necrosis in the data set on A549 cells [5] (A549, 4.4 µM) of 39.7%. Besides, the “percentage of living cells” value in the data set on A549 cells [5] (A549, 4.4 µM) is recorded as 12.4%.

In the case of `O=C1C=C(OCc2cn(-c3ccc(Cl)cc3)nn2)C(=O)c2ccccc21` [Compound 3], the growth inhibition category result is recorded as “low (low when below 50%)” in data set [1] (A549, 72 h, all concentrations tested (25 µM to 0.8 µM)); “low (low when below 50%)” in the data set on melanoma (B16-F10) cells (B16-F10, 72 h, all concentrations tested (25 µM to 0.8 µM)); “low (low when below 50%)” in the data set with glioma (C6) cells (C6, 72 h, all concentrations tested (25 µM to 0.8 µM)).

For the compound `COc1cccc2c1C(=O)c1c(O)c3c(c(O)c1C2=O)C[C@@](O)(C(=O)CO)C[C@@H]3O[C@H]1C[C@H](N)[C@H](O)[C@H](C)O1` [Doxorubicin, Doxorubicin Hydrochloride, reference compound], the IC50 was under 0.6 µM in data set [1]; 0.6 µM in the data set on melanoma (B16-F10) cells (listed as Doxorrubicin); under 0.6 µM in the data set on melanoma (B16-F10) cells (Mus musculus, B16-F10, 72 h). In the data set with A549 cells [3] (A549, 0.2 μM (positive control)), the inhibition at 0.2 µM amounted to 96.1%. Besides, the “wound closure (wound restored)” value in the data set with A549 cells [4] (A549, 0.2 μM (positive control), 48 h) was 78%. Further, in the data set with A549 cells [5] (A549, 0.2 µM), the “changes in the percentage of living, apoptotic or necrotic cells” value is “not possible to observe changes”.

Source of the values: paper PMC10510246, “Inhibitory effect of O-propargyllawsone in A549 lung adenocarcinoma cells” (BMC Complementary Medicine and Therapies, 2023).
